In patent US6914045B2, “Glycopeptide antibiotics” (Wyeth Holdings Corporation, priority 2001, dated 2005):

Tests used:
Assay in all cases: in vitro antibacterial evaluation, MIC by broth dilution
Assay type in all cases: cell-based
[1] = system: Streptococcus sp.; details: broth dilution, 18 hours at 35° C.
Method in brief: (§1)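 Broth dilution per NCCLS standard M7-A2 in Muller-Hinton II […], with an inoculum of 5×10^5 CFU/mL and antibiotic spanning 64-0.06 μg/mL. The MIC is the lowest concentration that inhibits growth of the organism.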

[2] = system: Enterococcus sp.; details: broth dilution, 18 hours at 35° C.
Method in brief: as §1

[3] = system: Staphylococcus sp.; details: broth dilution, 18 hours at 35° C.; for MIC Staphylococcus aureus (ATCC 29213): strain ATCC 29213; for MIC Staphylococcus aureus (GC 1131): strain GC 1131; for MIC Staphylococcus aureus (GC 3051): strain GC 3051; for MIC Staphylococcus aureus (GC 3053): strain GC 3053; for MIC Staphylococcus aureus (GC 4541): strain GC 4541; for MIC Staphylococcus aureus (GC 4542): strain GC 4542; for MIC Staphylococcus aureus-SMITH (GC 4543): strain GC 4543; for MIC Staphylococcus aureus (GC 4544): strain GC 4544; for MIC Staphylococcus aureus (GC 4545): strain GC 4545; for MIC Staphylococcus haemolyticus (GC 4546): strain GC 4546; for MIC Coagulase Negative Staphylococcus (GC 4547): strain GC 4547; for MIC Coagulase Negative Staphylococcus (GC 4548): strain GC 4548; for MIC Coagulase Negative Staphylococcus (GC 4549): strain GC 4549; for MIC Coagulase Negative Staphylococcus (GC 4551): strain GC 4551
Method in brief: as §1

[4] = system: Escherichia coli; details: 18 hours at 35° C.
[5] = inoculum 5×10^5 CFU/mL, strain ATCC 6301
[6] = inoculum 5×10^5 CFU/mL, strain GC 1894
[7] = inoculum 5×10^5 CFU/mL, strain GC 4563
[8] = inoculum 5×10^5 CFU/mL, strain GC 4564
[9] = inoculum 5×10^5 CFU/mL, strain GC 4565
[10] = inoculum 5×10^5 CFU/mL, strain ATCC 29212
[11] = inoculum 5×10^5 CFU/mL, strain GC 2242
[12] = inoculum 5×10^5 CFU/mL, strain GC 2243
[13] = inoculum 5×10^5 CFU/mL, strain GC 2691
[14] = inoculum 5×10^5 CFU/mL, strain GC 3059
[15] = inoculum 5×10^5 CFU/mL, strain GC 4552
[16] = inoculum 5×10^5 CFU/mL, strain GC 4553
[17] = inoculum 5×10^5 CFU/mL, strain GC 4554
[18] = inoculum 5×10^5 CFU/mL, strain GC 4556
[19] = inoculum 5×10^5 CFU/mL, strain GC 4557
[20] = inoculum 5×10^5 CFU/mL, strain GC 4558
[21] = inoculum 5×10^5 CFU/mL, strain GC 6189

N=C1NCC(C(O)C2NC(=O)C(CC3CCC(OC4OC(CO)C(OC5OC6COC7(OC6C(O)C5O)C5CC6CC(C5)CC7C6)C(O)C4O)CC3)NC(=O)C(CC3CCCCC3)NC(=O)CNC(=O)C(CO)NC(=O)C(C(O)C3CNC(=N)N3C3OC(CO)C(O)C(O)C3O)NC2=O)N1 (single isomer, unassigned) [Example 222]
32 µg/mL: MIC Streptococcus pneumoniae (GC 1894) [1] | MIC Streptococcus pneumoniae (GC 1894) [1, 6]
64 µg/mL: MIC Streptococcus pneumoniae (ATCC 6301) [1] | MIC Streptococcus pneumoniae (GC 4565) [1] | MIC Streptococcus pyogenes (GC 4563) [1] | MIC Streptococcus pneumoniae (ATCC 6301) [1, 5] | MIC Streptococcus pyogenes (GC 4563) [1, 7] | MIC Streptococcus pneumoniae (GC 4565) [1, 9] | MIC Enterococcus avium (GC 4558) [2] | MIC Enterococcus faecium (GC 4557) [2] | MIC Enterococcus faecium (GC 4557) [2, 19] | MIC Enterococcus avium (GC 4558) [2, 20] | MIC Escherichia coli (GC 4560) [4]
>64 µg/mL: MIC Streptococcus agalactiae (GC 4564) [1] | MIC Streptococcus agalactiae (GC 4564) [1, 8] | MIC Enterococcus faecalis (ATCC 29212) [2] | MIC Enterococcus faecalis (GC 2242) [2] | MIC Enterococcus faecalis (GC 2691) [2] | MIC Enterococcus faecalis (GC 3059) [2] | MIC Enterococcus faecalis (GC 4552) [2] | MIC Enterococcus faecalis (GC 4553) [2] | MIC Enterococcus faecalis (GC 4554) [2] | MIC Enterococcus faecalis (GC 6189) [2] | MIC Enterococcus faecium (GC 2243) [2] | MIC Enterococcus faecium (GC 4556) [2] | MIC Enterococcus faecalis (ATCC 29212) [2, 10] | MIC Enterococcus faecalis (GC 2242) [2, 11] | MIC Enterococcus faecium (GC 2243) [2, 12] | MIC Enterococcus faecalis (GC 2691) [2, 13] | MIC Enterococcus faecalis (GC 3059) [2, 14] | MIC Enterococcus faecalis (GC 4552) [2, 15] | MIC Enterococcus faecalis (GC 4553) [2, 16] | MIC Enterococcus faecalis (GC 4554) [2, 17] | MIC Enterococcus faecium (GC 4556) [2, 18] | MIC Enterococcus faecalis (GC 6189) [2, 21] | MIC Staphylococcus aureus (ATCC 29213) [3] | MIC Staphylococcus aureus (GC 1131) [3] | MIC Staphylococcus aureus (GC 3051) [3] | MIC Staphylococcus aureus (GC 3053) [3] | MIC Staphylococcus aureus (GC 4541) [3] | MIC Staphylococcus aureus (GC 4542) [3] | MIC Staphylococcus aureus-SMITH (GC 4543) [3] | MIC Staphylococcus aureus (GC 4544) [3] | MIC Staphylococcus aureus (GC 4545) [3] | MIC Staphylococcus haemolyticus (GC 4546) [3] | MIC Coagulase Negative Staphylococcus (GC 4547) [3] | MIC Coagulase Negative Staphylococcus (GC 4548) [3] | MIC Coagulase Negative Staphylococcus (GC 4549) [3] | MIC Coagulase Negative Staphylococcus (GC 4551) [3] | MIC Escherichia coli (ATCC 25922) [4] | MIC Escherichia coli (GC 4559) [4]

CC(c1ccccc1)C1NC(=O)CNC(=O)C(CO)NC(=O)C(C(O)C2CNC(=N)N2C2OC(CO)C(O)C(O)C2O)NC(=O)C(C(O)C2CNC(=N)N2)NC(=O)C(Cc2ccc(OC3OC(CO)C(OC4OC5COC6(CC7CCC6(C)C7(C)C)OC5C(O)C4O)C(O)C3O)cc2)NC1=O (stereo not drawn) [Example 214]
1 µg/mL: MIC Enterococcus faecium (GC 2243) [2] | MIC Enterococcus faecium (GC 2243) [2, 12] | MIC Staphylococcus aureus (GC 1131) [3] | MIC Staphylococcus aureus (GC 4542) [3] | MIC Staphylococcus aureus (GC 4544) [3] | MIC Staphylococcus haemolyticus (GC 4546) [3] | MIC Coagulase Negative Staphylococcus (GC 4547) [3] | MIC Coagulase Negative Staphylococcus (GC 4548) [3] | MIC Coagulase Negative Staphylococcus (GC 4551) [3]
32 µg/mL: MIC Staphylococcus aureus (GC 3051) [3]
2 µg/mL: MIC Enterococcus avium (GC 4558) [2] | MIC Enterococcus faecalis (ATCC 29212) [2] | MIC Enterococcus faecalis (GC 2242) [2] | MIC Enterococcus faecalis (GC 2691) [2] | MIC Enterococcus faecalis (GC 3059) [2] | MIC Enterococcus faecalis (GC 4552) [2] | MIC Enterococcus faecalis (GC 4553) [2] | MIC Enterococcus faecalis (GC 4554) [2] | MIC Enterococcus faecalis (GC 6189) [2] | MIC Enterococcus faecium (GC 4556) [2] | MIC Enterococcus faecium (GC 4557) [2] | MIC Enterococcus faecalis (ATCC 29212) [2, 10] | MIC Enterococcus faecalis (GC 2242) [2, 11] | MIC Enterococcus faecalis (GC 2691) [2, 13] | MIC Enterococcus faecalis (GC 3059) [2, 14] | MIC Enterococcus faecalis (GC 4552) [2, 15] | MIC Enterococcus faecalis (GC 4553) [2, 16] | MIC Enterococcus faecalis (GC 4554) [2, 17] | MIC Enterococcus faecium (GC 4556) [2, 18] | MIC Enterococcus faecium (GC 4557) [2, 19] | MIC Enterococcus avium (GC 4558) [2, 20] | MIC Enterococcus faecalis (GC 6189) [2, 21] | MIC Staphylococcus aureus (ATCC 29213) [3] | MIC Staphylococcus aureus (GC 3053) [3] | MIC Staphylococcus aureus (GC 4541) [3] | MIC Staphylococcus aureus (GC 4545) [3] | MIC Escherichia coli (GC 4560) [4]
0.5 µg/mL: MIC Staphylococcus aureus-SMITH (GC 4543) [3] | MIC Coagulase Negative Staphylococcus (GC 4549) [3]
<0.12 µg/mL: MIC Streptococcus agalactiae (GC 4564) [1] | MIC Streptococcus pneumoniae (ATCC 6301) [1] | MIC Streptococcus pneumoniae (GC 1894) [1] | MIC Streptococcus pneumoniae (GC 4565) [1] | MIC Streptococcus pyogenes (GC 4563) [1] | MIC Streptococcus pneumoniae (ATCC 6301) [1, 5] | MIC Streptococcus pneumoniae (GC 1894) [1, 6] | MIC Streptococcus pyogenes (GC 4563) [1, 7] | MIC Streptococcus agalactiae (GC 4564) [1, 8] | MIC Streptococcus pneumoniae (GC 4565) [1, 9]
64 µg/mL: MIC Escherichia coli (ATCC 25922) [4] | MIC Escherichia coli (GC 4559) [4]
